Experimental findings from patent publication US8273738B2, “Imidazole derivatives” (priority 2006, dated 2012) are described below.

For one assay, the target named is T1, CB2 receptor (Rattus norvegicus, UniProt Q9QZN9).
T1 construct: from tissue; host or cells: rat spleen membrane specimen
T1 sequence (Q9QZN9 1-360): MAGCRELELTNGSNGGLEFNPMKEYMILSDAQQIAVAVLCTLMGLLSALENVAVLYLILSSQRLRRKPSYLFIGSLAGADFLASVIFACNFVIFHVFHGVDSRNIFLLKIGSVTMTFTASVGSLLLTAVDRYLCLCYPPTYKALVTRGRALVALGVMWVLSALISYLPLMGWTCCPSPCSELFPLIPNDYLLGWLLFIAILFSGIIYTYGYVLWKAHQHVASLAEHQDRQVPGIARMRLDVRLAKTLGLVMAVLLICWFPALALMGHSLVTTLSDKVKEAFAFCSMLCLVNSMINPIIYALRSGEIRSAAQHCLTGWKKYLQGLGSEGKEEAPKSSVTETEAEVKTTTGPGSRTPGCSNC
Description: Cannabinoid CB2 receptor-binding activity ([3H]CP55940 binding experiment), rat spleen membrane specimen. How it is done: A test was carried out according to the method of Hillard et al. [The Journal of Pharmacology and Experimental Therapeutics, vol. 289, p. 1427 (1999)]. A rat forebrain membrane specimen and a rat spleen membrane specimen were prepared and used in a binding experiment for a CB1 receptor and a binding experiment for a CB2 receptor, respectively. The membrane specimen (forebrain: final concentration of 0.5 mg of protein/mL, spleen: final concentration of 2 mg of protein/mL) was incubated together with a test compound and [^3H]CP55940 (manufactured by PerkinElmer) ((−)-cis-3-[2-hydroxy-[3,5-^3H]-4-(1,1-dimethylheptyl)phenyl]-trans-4-(3-hydroxypropyl)cyclohexanol)) (final concentration: 0.5 nmol/L) in an assay buffer (50 mmol/L Tris-HCl buffer (pH 7.4), 1 mmol/L EDTA and 3 mmol/L MgCl2) containing 0.1% bovine serum albumin at 25° C. for 1 hour, and the resulting mixture was filtered using a glass filter GF/C (manufactured by Whatman) treated with 1% polyethyleneimine. After the glass filter was washed with the assay buffer containing 0.2% bovine serum albumin, the radioactivity on the glass filter was measured using a liquid scintillation counter (TRI-CARB 2700TR, manufactured by Packard). The binding amount in the presence of 10 μmol/L […] (manufactured by Tocris) ((R)-(+)-[2,3-dihydro-5-methyl-3-(4-morpholinylmethyl)pyrrolo[1,2,3-de]-1,4-benzoxazin-6-yl]-1-naphthalenylmethanone) was considered to be a non-specific binding amount, and a difference between the total binding amount and the non-specific binding amount was considered to be a specific binding amount. The 50% inhibitory concentration (IC50 value) of the test compound against the specific binding was obtained, and the Ki value of the test substance was calculated from the 50% inhibitory concentration and the Kd value of the [^3H]CP55940 binding.

The target of another assay is T2, human CB2 receptor (Homo sapiens, UniProt P34972).
T2 construct: expressed in transfected cells
T2 sequence (P34972 whole entry): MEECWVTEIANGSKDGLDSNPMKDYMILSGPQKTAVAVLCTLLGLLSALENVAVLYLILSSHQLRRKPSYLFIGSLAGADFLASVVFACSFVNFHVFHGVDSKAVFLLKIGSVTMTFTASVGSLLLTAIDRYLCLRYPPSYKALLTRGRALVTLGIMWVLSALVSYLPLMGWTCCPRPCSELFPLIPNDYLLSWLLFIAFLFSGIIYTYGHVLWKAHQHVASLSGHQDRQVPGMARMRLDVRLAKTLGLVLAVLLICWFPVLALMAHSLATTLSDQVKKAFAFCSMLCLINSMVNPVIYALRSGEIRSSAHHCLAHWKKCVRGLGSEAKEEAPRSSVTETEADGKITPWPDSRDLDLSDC
The assay is described as follows: GTPγS binding experiment via human CB2 receptor (membrane fraction of CHO-K1 cells). The settings on record: for Emax: read-out: Emax value (maximum effect of CP55940 as 100%). Type of assay: biochemical. Here is the method:
A test was carried out according to the method of Hillard et al. [The Journal of Pharmacology and Experimental Therapeutics, vol. 289, p. 1427 (1999)]. As for a membrane specimen, a membrane fraction was prepared from CHO-K1 cells in which a human CB2 receptor [Nature, vol. 365, pp. 61-65 (1993)] was stably expressed and used. The membrane specimen (final concentration: 40 μg of protein/mL) was incubated together with a test compound and [^35S]GTPγS (manufactured by PerkinElmer) (final concentration: 0.05 nmol/L) in an assay buffer (50 mmol/L Tris-HCl buffer (pH 7.4), 100 mmol/L NaCl, 1 mmol/L EDTA, 3 mmol/L MgCl2, and 0.1% bovine serum albumin) containing 20 μmol/L guanosine 5′-diphosphate (GDP) at 30° C. for 1 hour, and the resulting mixture was filtered using a glass filter GF/B (manufactured by Whatman). After the glass filter was washed with the assay buffer, the radioactivity on the glass filter was measured using a liquid scintillation counter (TRI-CARB 2700TR, manufactured by Packard). The binding amount in the presence of 10 μmol/L GTPγS was considered to be a non-specific binding amount, and a difference between the total binding amount and the non-specific binding amount was considered to be a specific binding amount. The ratio of increase in the specific binding amount in the presence of the test compound to the specific binding amount in the absence of the test compound was considered to be an agonistic activity of the test compound. The concentration of the test compound that produces 50% of the maximum effect (EC50 value) was calculated by performing a nonlinear regression analysis using the concentration-response data. The percentage of the maximum effect of the test compound (Emax value) was calculated by considering the maximum effect of CP55940 (manufactured by Tocris) measured at the same time as 100%.

Where [1] appears, read: rat spleen membrane, [3H]CP55940 0.5 nmol/L, 25° C., 1 hour, read-out: Ki value against the CB2 receptor.

Where a name gives a salt, the structure may show the parent alone. Read-outs that look alike come from different tables or passages of the source. Bounds are passed on as bounds.

Broadly, the Ki is a measure of affinity in units of concentration, obtained from inhibition or displacement. Take `CC(C)(C)c1nc(-c2cccc([N+](=O)[O-])c2)cn1CC1CCCCC1` [Compound 28, 2-tert-Butyl-1-cyclohexylmethyl-4-(3-nitrophenyl)-1H-imidazole]: the Ki on CB2 receptor (setting [1]) is less than 1000 nM. Consider `CCN(CC)C(=O)c1cccc(-c2cn(CC3CCCCC3)c(C(C)(C)C)n2)c1` [Compound 32, 3-(2-tert-Butyl-1-cyclohexylmethyl-1H-imidazol-4-yl)-N,N-diethylbenzamide], for which, at CB2 receptor (setting [1]), the Ki was less than 1000 nM. What is called EC50 is the concentration giving half of the maximal effect. Lower therefore signals a more potent agent. As usually defined, the Emax is the size of the effect at its maximum, as opposed to the concentration needed. In the case of `COc1cccc(-c2cn(CC3CCCCC3)c(CC(C)(C)C)n2)c1` [Compound 38, 1-Cyclohexylmethyl-2-(2,2-dimethylpropyl)-4-(3-methoxyphenyl)-1H-imidazole], at human CB2 receptor, the concentration giving a half-maximal response (EC50) was less than 1000 nM and the Emax was greater than 30%.

Regarding `CC(C)(C)c1nc(-c2cccc([N+](=O)[O-])c2)cn1CC1CCCCO1` (stereo not drawn) [Compound 42, 2-tert-Butyl-4-(3-nitrophenyl)-1-(tetrahydropyran-2-ylmethyl)-1H-imidazole], at human CB2 receptor, the concentration giving a half-maximal response (EC50) is less than 1000 nM and the Emax was greater than 30%. This compound also displayed an inhibition constant Ki at CB2 receptor of less than 1000 nM. For `CC(C)C(=O)c1cccc(-c2cn(CC3CCOCC3)c(C(C)(C)C)n2)c1` [Compound 47, 1-{3-[2-tert-Butyl-1-(tetrahydropyran-4-ylmethyl)-1H-imidazol-4-yl]phenyl}-2-methylpropan-1-one hydrochloride], at CB2 receptor (setting [1]), the Ki was less than 1000 nM. As to `CC(C)(C)c1nc(-c2cccc(C(=O)c3ccccc3)c2)cn1CC1CCOCC1` [Compound 48, {3-[2-tert-Butyl-1-(tetrahydropyran-4-ylmethyl)-1H-imidazol-4-yl]phenyl}phenylmethanone hydrochloride], at human CB2 receptor, the EC50 is less than 1000 nM and the Emax is greater than 30%. The compound also returned a Ki on CB2 receptor of less than 1000 nM. In the case of `CC(=O)c1cccc(-c2cn(CC3CCOCC3)c(C(C)(C)C)n2)c1` [Compound 49, 1-{3-[2-tert-Butyl-1-(tetrahydropyran-4-ylmethyl)-1H-imidazol-4-yl]phenyl}ethanone], at human CB2 receptor, the EC50 was less than 1000 nM and the Emax is greater than 30%. The Ki on CB2 receptor (setting [1]) is less than 1000 nM. For the compound `CC(C)(C)c1nc(-c2cncc(Br)c2)cn1CC1CCOCC1` [Compound 84, 3-Bromo-5-[2-tert-Butyl-1-(tetrahydropyran-4-ylmethyl)-1H-imidazol-4-yl]pyridine], the inhibition constant Ki at CB2 receptor (setting [1]) was less than 1000 nM. `CC(C)(C)c1nc(C=CC(=O)N(CC(F)(F)F)CC(F)(F)F)cn1CC1CCOCC1` [Compound 90, 3-(2-tert-Butyl-1-(tetrahydropyran-4-ylmethyl)-1H-imidazol-4-yl)-N,N-bis(2,2,2-trifluoroethyl)acrylamide]: the Ki on CB2 receptor (setting [1]) is less than 1000 nM. Turning to `CCCN(CCC)C(=O)C=Cc1cn(CC2CCOCC2)c(C(C)(C)C)n1` [Compound 92, 3-(2-tert-Butyl-1-(tetrahydropyran-4-ylmethyl)-1H-imidazol-4-yl)-N,N-dipropylacrylamide], the inhibition constant (Ki) on CB2 receptor (setting [1]) is less than 1000 nM. Take `CN(C)C(=O)c1cc(-c2cn(CC3(F)CCOCC3)c(C(C)(C)C)n2)cs1` [Compound 188, 4-[2-tert-Butyl-1-(4-fluorotetrahydropyran-4-ylmethyl)-1H-imidazol-4-yl]-N,N-dimethylthiophene-2-carboxamide]: the Ki on CB2 receptor (setting [1]) is less than 1000 nM. Same read-out and setting: to `CCOc1ccc(Cc2nc(-c3cccc(OC)c3)cn2CC2CCOCC2)cc1` [Compound o, 2-(4-Ethoxybenzyl)-4-(3-methoxyphenyl)-1-(tetrahydro-pyran-4-ylmethyl)-1H-imidazole] belongs less than 1000 nM; to `CCOc1ccc(Cc2nc(-c3cccc(C#N)c3)cn2CC2CCOCC2)cc1` [Compound p, 3-[2-(4-Ethoxybenzyl)-1-(tetrahydropyran-4-ylmethyl)-1H-imidazol-4-yl]benzonitrile], less than 1000 nM; to `CCOc1ccc(Cc2nc(-c3cccc(C(=O)N(CC)CC)c3)cn2CC2CCOCC2)cc1` [Compound q, 3-[2-(4-Ethoxybenzyl)-1-(tetrahydropyran-4-ylmethyl)-1H-imidazol-4-yl]-N,N-diethylbenzamide], less than 1000 nM.
